Source: patent US7737305B2, “Sulfonic acid polyol compound, polyurethane resin, polyurethane resin for magnetic recording medium, and magnetic recording medium” (FUJIFILM Corporation, priority 2007, dated 2010)

Experiments:
[1] = Solubility test in cyclohexanone (residue after dissolution); type: physicochemical; conditions: 1 part by weight in 5 parts by weight of cyclohexanone, 40° C., 3 hours, ultrasonic waves, filtered
Procedure: (1-2) Solubility Test Method
1 part by weight of sulfonic acid (salt) diol compound was added to 5 parts by weight of cyclohexanone, and dissolution was carried out at 40° C. for 3 hours using ultrasonic waves. A solution thus obtained was filtered, and the presence/absence of a residue after dissolution was checked.

[2] = background statement; cited from earlier work

Structure (SMILES): O=S(=O)([O-])CCN(CCO)CCO.[Na+]
- presence/absence of a residue after dissolution [1]: a residue was found

Structure (SMILES): O=S(=O)(O)CCN(CCO)CCO [N,N-bis(2-hydroxyethyl)-2-aminoethanesulfonic acid]
- presence/absence of a residue after dissolution [1]: a residue was found
- solubility in organic solvents [2]: does not dissolve in organic solvents

Structure (SMILES): O=S(=O)([O-])CCN(CCO)CCO.[Li+]
- presence/absence of a residue after dissolution [1]: a residue was found

Structure (SMILES): O=S(=O)([O-])CCN(CCO)CCO.[K+]
- presence/absence of a residue after dissolution [1]: a residue was found
